For two compounds, inhibition results are on record in ChEMBL document CHEMBL4630901 (2021).

Common to all, as to conditions: Compound concentration 10.0 uM
Assay [1] deals with T1, 5-hydroxytryptamine receptor 1A (Homo sapiens) (UniProt P08908).
T1 sequence (whole entry): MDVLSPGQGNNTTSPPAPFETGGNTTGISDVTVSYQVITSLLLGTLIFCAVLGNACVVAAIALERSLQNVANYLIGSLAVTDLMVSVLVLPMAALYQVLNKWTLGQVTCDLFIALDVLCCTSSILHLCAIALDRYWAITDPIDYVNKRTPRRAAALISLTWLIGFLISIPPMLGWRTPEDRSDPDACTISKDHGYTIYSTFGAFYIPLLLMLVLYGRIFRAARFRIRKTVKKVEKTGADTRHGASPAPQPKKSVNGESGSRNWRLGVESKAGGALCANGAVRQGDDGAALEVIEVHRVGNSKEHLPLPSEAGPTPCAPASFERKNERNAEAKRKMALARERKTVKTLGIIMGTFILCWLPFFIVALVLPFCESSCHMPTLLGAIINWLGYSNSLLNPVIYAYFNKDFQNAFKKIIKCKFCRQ

The target in assay [2] is 5-hydroxytryptamine receptor 1B (Homo sapiens) (UniProt P28222).
Sequence of 5-hydroxytryptamine receptor 1B (Homo sapiens) (P28222 whole entry): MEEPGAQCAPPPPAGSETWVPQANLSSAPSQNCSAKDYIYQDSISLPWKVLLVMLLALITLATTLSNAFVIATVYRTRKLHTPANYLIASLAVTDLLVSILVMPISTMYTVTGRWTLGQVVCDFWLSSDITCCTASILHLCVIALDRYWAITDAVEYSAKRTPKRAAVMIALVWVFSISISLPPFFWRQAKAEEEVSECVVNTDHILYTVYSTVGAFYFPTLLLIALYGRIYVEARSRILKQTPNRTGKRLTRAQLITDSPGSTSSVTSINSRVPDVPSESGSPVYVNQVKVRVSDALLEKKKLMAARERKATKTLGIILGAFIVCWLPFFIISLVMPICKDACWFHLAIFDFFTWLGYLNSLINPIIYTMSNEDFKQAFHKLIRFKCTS
In assay [3] the target is T2, 5-hydroxytryptamine receptor 2C (Homo sapiens) (UniProt P28335).
T2 sequence (whole entry): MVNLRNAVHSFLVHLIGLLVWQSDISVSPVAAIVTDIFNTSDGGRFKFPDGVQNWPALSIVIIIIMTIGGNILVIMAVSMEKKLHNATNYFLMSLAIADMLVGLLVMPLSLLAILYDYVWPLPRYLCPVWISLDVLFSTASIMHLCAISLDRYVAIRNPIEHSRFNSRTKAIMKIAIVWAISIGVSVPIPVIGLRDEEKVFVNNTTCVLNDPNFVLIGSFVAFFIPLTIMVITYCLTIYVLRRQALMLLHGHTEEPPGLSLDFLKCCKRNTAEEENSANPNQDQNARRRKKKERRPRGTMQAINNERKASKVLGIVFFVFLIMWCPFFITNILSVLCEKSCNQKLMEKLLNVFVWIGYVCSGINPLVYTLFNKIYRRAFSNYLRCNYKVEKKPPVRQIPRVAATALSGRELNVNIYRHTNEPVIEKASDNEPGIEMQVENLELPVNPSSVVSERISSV

Assay [4] addresses 5-hydroxytryptamine receptor 3A (Homo sapiens) (UniProt P46098).
Assay [5] has as its target 5-hydroxytryptamine receptor 5A (Homo sapiens) (UniProt P47898).
In assay [6] the target is 5-hydroxytryptamine receptor 6 (Homo sapiens) (UniProt P50406).
Sequence of 5-hydroxytryptamine receptor 6 (Homo sapiens) (P50406 whole entry): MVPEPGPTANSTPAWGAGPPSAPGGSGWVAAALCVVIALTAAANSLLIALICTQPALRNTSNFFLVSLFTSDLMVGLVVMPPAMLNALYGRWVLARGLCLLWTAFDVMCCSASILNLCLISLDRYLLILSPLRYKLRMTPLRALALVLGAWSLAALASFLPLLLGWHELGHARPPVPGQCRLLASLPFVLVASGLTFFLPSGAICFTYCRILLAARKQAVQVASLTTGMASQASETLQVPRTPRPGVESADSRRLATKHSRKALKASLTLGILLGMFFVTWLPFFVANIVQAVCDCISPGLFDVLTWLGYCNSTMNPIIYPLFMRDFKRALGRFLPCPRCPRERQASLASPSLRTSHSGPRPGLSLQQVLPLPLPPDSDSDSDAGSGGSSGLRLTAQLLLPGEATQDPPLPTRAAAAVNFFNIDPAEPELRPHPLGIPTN
Assay [7] concerns the target D(1A) dopamine receptor (Homo sapiens) (UniProt P21728).
The target in assay [8] is D(2) dopamine receptor (Homo sapiens) (UniProt P14416).
Sequence of D(2) dopamine receptor (Homo sapiens) (P14416 whole entry): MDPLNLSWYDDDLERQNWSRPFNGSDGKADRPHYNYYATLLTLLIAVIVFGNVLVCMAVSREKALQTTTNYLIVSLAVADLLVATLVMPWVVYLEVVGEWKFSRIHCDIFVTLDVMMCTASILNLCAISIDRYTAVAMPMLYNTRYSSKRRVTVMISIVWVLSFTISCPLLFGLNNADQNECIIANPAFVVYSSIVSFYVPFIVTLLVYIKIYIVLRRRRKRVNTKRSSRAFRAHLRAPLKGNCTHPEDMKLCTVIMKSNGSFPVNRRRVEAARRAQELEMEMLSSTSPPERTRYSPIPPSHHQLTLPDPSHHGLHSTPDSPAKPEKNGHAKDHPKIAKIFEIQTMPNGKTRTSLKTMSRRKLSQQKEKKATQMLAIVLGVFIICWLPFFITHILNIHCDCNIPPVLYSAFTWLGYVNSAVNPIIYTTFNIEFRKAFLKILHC
Assay [9] has as its target Mu-type opioid receptor (Homo sapiens) (UniProt P35372).
In assay [10] the target is T3, Alpha-1A adrenergic receptor (Homo sapiens) (UniProt P35348).
T3 sequence (whole entry): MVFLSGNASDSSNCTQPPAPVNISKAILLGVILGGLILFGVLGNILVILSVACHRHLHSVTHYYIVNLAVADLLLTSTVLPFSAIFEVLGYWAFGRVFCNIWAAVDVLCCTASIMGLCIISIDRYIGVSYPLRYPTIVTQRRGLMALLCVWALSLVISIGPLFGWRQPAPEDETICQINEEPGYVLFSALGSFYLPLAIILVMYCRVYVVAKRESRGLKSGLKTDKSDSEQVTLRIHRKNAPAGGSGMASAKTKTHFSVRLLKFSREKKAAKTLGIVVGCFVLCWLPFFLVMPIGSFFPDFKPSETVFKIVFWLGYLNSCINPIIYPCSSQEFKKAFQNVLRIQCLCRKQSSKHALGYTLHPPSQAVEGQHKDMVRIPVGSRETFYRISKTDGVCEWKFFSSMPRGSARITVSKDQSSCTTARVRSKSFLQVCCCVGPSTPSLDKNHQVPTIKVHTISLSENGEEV

Assay [11] addresses T4, Alpha-2C adrenergic receptor (Homo sapiens) (UniProt P18825).
T4 sequence (whole entry): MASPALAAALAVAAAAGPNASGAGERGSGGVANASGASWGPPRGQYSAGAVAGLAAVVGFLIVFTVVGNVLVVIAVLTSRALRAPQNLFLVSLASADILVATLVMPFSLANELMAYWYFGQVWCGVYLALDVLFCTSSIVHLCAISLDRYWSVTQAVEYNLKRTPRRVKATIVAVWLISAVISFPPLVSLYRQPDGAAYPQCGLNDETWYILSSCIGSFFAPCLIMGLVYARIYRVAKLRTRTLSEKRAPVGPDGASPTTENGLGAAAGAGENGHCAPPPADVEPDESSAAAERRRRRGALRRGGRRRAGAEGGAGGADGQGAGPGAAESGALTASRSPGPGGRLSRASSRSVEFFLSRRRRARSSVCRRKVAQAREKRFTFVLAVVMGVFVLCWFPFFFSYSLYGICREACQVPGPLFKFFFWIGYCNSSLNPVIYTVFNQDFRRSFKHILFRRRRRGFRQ

In assay [12] the target is Muscarinic acetylcholine receptor M5 (Homo sapiens) (UniProt P08912).
Sequence of Muscarinic acetylcholine receptor M5 (Homo sapiens) (P08912 whole entry): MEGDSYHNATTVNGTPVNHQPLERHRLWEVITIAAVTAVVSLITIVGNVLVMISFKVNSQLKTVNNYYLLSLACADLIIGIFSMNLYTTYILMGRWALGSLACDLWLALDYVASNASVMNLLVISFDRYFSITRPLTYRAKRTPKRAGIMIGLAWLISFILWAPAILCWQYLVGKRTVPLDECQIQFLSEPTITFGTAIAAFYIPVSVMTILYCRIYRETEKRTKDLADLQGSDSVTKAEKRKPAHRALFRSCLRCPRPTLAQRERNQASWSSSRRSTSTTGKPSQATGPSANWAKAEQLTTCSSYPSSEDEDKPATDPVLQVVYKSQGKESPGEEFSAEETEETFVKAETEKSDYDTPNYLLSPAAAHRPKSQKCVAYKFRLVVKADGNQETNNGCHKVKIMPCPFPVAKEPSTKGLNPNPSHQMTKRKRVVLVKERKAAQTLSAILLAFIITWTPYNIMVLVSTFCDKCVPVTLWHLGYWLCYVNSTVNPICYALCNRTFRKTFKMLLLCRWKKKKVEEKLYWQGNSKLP
Assay [13] deals with GABA-A receptor; anion channel (Rattus norvegicus) (UniProt O09028+P15431+P18506+P18508+P19969+P20236+P23574+P23576+P28471+P28473+P30191+P62813+P63079+P63138+Q91ZM7+Q9ES14).
The species entered for another assay is Rattus norvegicus.
The target of assay [14] is Alpha-1D adrenergic receptor (Homo sapiens) (UniProt P25100).
Sequence of Alpha-1D adrenergic receptor (Homo sapiens) (P25100 whole entry): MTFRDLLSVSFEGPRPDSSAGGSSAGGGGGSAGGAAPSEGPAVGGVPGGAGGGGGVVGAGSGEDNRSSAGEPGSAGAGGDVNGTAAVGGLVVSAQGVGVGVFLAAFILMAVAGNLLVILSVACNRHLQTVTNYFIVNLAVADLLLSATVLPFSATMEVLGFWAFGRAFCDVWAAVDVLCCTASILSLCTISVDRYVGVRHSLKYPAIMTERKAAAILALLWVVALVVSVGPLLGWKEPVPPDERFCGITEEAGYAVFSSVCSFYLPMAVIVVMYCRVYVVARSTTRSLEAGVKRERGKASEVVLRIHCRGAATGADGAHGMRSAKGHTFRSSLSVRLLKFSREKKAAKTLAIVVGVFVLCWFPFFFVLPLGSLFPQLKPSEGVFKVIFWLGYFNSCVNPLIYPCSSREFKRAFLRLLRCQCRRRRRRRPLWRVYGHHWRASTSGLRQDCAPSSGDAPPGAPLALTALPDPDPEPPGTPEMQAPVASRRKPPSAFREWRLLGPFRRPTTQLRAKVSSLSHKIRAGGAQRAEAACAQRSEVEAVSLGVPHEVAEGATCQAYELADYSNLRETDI
The target of assay [15] is Sigma intracellular receptor 2 (Homo sapiens, UniProt Q5BJF2).
Sequence of Sigma intracellular receptor 2 (Q5BJF2 whole entry): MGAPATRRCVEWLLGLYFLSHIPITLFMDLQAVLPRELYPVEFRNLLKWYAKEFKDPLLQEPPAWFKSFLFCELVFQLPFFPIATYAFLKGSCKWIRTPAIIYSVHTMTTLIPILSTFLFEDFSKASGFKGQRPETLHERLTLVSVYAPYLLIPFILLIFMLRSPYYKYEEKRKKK

Structures are written as SMILES.

Sequence of D(1A) dopamine receptor (Homo sapiens) (P21728 whole entry): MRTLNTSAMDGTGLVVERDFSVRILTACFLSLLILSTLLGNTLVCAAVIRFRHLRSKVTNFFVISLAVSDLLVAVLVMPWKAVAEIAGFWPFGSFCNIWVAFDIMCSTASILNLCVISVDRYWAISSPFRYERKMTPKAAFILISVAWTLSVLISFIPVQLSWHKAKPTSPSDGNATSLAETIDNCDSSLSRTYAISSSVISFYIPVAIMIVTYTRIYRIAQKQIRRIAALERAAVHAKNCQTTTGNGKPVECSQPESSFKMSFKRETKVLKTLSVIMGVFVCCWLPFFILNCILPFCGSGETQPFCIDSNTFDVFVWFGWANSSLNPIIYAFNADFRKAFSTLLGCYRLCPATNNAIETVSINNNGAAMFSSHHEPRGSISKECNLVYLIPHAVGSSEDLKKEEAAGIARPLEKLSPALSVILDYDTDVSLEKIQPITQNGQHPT
Sequence of 5-hydroxytryptamine receptor 3A (Homo sapiens) (P46098 whole entry): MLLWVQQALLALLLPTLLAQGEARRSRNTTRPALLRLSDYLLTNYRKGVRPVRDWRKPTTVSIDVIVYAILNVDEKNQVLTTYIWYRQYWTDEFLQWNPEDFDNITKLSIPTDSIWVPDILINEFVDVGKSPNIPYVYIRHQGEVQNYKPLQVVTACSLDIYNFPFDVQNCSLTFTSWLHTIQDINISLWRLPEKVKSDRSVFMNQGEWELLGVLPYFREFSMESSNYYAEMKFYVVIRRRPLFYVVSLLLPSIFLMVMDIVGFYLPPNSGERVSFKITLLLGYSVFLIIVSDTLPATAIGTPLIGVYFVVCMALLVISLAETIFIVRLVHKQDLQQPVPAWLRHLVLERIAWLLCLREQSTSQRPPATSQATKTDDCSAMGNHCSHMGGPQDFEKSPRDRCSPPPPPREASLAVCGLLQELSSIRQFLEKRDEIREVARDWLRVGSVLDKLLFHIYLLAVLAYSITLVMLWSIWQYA
Sequence of 5-hydroxytryptamine receptor 5A (Homo sapiens) (P47898 whole entry): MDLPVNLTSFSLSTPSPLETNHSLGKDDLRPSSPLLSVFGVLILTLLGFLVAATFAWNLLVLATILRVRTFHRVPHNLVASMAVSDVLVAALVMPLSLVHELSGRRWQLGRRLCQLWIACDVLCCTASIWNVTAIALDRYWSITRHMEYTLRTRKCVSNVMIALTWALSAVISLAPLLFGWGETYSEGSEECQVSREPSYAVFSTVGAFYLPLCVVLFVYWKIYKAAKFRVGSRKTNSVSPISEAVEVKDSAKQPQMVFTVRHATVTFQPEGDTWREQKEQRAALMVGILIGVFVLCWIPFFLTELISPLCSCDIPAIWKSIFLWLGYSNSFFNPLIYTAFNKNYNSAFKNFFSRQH
Sequence of Mu-type opioid receptor (Homo sapiens) (P35372 whole entry): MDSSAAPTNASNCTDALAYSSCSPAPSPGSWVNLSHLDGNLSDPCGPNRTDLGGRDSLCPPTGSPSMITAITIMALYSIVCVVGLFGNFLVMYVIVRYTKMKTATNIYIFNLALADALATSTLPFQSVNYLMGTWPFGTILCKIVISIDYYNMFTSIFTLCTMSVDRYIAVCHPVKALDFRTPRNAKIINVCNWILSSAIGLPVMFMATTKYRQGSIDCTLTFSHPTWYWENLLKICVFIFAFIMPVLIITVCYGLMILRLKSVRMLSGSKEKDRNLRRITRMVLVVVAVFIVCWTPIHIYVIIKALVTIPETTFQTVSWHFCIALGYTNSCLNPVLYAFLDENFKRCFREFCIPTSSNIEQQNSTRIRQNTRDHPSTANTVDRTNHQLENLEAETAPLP

A word on the inhibition: it is the change of the read-out against control, counted positive when it falls. For the compound `Cc1c(N2CCNCC2)nc2ccc(Br)cc2c1C(=O)NC[C@H](CCC(=O)O)c1ccccc1Cl` [BAY-403], the inhibition in assay [1] was 47.1%; in [2] it was 15.2%; in assay [3], 12.7%; in assay [4] it was 86%; in [5], 11.3%; in assay [6], 1.76%. Also, the inhibition in assay [7] was 31.6%; in [8], 2.75%; in assay [9], 40.9%; in assay [10] it was 23.3%; in assay [11] it was 5.7%; in assay [12], -0.13%. Also, the inhibition in [13] is 38.3%; in the assay filed under Rattus norvegicus, 20%; in [14], 16%; in assay [15], 60%.

Consider `Cc1c(N2CCCC2)nc2ccc(Br)cc2c1C(=O)NC[C@H](CCC(=O)O)c1ccccc1Cl` [BAY-6672], for which the inhibition is 5.62% in [1]; -2.2% in assay [2]; 2.98% in assay [3]; 37.7% in [4]; -5.32% in assay [5]; 6.59% in [6]. In addition, the inhibition in [7] was 13.8%; in assay [8], 9.71%; in [9], 11.7%; in assay [10], 1.72%; in assay [11], 16.1%; in assay [12] it was 9.92%. The inhibition was 5.06% in assay [13], -2.43% in the assay filed under Rattus norvegicus, 3.44% in assay [14] and 8.52% in assay [15].
